Assay results taken from US5942405A, “Therapeutic and screening methods using C3a receptor and C3a” (priority 1997, dated 1999).

Columns and labels:
C3a Receptor = target: T1, C3a Receptor (Homo sapiens, UniProt Q16581); experiment: Electrophysiological response (Ca2+ mediated chloride currents, two electrode voltage clamp) of Xenopus oocytes injected with C3a Receptor cRNA; format: cell-based; parameters: cDNA encoding a complete orphan GPCR of 482 amino acids; expressed in transfected cells; host or cells: Xenopus laevis oocytes microinjected with cRNA, with or without U937 total RNA; settings: for electrophysiological response of oocytes expressing C3a Receptor: oocytes co-injected with C3a Receptor cRNA (10 ng) and U937 RNA (25 ng), ligands 10 nM
T1 sequence (Q16581 1-482 F151C): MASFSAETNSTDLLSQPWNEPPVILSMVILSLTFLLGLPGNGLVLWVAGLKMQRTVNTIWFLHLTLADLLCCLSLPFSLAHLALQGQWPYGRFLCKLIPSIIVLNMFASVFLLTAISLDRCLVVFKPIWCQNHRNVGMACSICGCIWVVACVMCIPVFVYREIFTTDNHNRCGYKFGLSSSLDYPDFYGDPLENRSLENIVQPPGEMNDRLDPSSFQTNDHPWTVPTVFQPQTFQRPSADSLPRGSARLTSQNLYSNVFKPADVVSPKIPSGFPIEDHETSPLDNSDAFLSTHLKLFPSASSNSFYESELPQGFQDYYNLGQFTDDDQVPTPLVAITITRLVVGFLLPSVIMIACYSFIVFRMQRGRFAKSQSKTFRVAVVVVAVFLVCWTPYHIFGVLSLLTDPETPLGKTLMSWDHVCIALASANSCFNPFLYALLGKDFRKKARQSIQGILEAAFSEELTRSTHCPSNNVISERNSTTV
Experimental: (A) Electrophysiological response of Xenopus oocytes injected with cRNA for C3a Receptor (10 ng), total U937 RNA (25 ng), or a mixture of C3a Receptor (10 ng) and U937 RNA (25 ng) to 10 nM rC5a, 10 nM C3a analogue peptide, 10 nM platelet activating factor (PAF), 10 nM fMetLeuPhe. Inset, represents typical response of oocytes co-injected with C3a Receptor cRNA+U937 RNA to 10 nM C3a. (B) Electrophysiological response of oocytes injected with C5a-R cRNA (10 ng), U937 RNA (25 ng) or a mixture of C5a-R and U937 RNA, to 10 nM rC5a or 10 nM C3a analogue peptide. […] Calcium mobilization by Fura 2 loaded cells expressing C5a receptor (FIGS. 4A & 4C) or C3a Receptor (FIGS. 4B & 4D) in response to rC5a (10 nM, FIG. 4A or 100 nM, FIG. 4B) or C3a analogue peptide (1 uM, FIGS. 4C & 4D).
Capped cRNA transcripts were generated from linearized C3a Receptor and C5a-R plasmid DNA as previously described (Kumar, C. S., et al (1989) J. Biol. Chem. 264, 17939-17946) and suspended in sterile water at a concentration of 0.2 μg/μl. Ovarian lobes were surgically removed from adult female Xenopus laevis frogs and defolliculated Stage V oocytes were harvested by manual dissection (Smith, L. D., et al (1991) Methods in Cell Biology, 36, 45-54. Edited by B. K. Kay and H. B. Peng, Academic Press Inc., New York.). Oocytes were microinjected with C3a Receptor or C5a-R cRNA transcripts (10 ng/oocyte) with or without U937 total RNA (25 ng/oocyte) in a 50 nl volume using a Drummond microinjection apparatus and maintained in modified Barth's saline (Power, C. A., et al (1995) J. Biol. Chem., 270,19495-19500 ) at 18° C. Electrophysiological recordings from an average of 10 oocytes were made 48 h later at room temperature using the two electrode voltage clamp (Warner Instruments) technique. Membrane potentials were routinely clamped at -60 mV. Results represent average response determined in three separate experiments.
The chemotactic receptors for C5a and the fMLP-R have previously been functionally expressed in Xenopus laevis oocytes (Kroll, B., et al (1991) FEBS Lett. 291, 208-210; Murphy, P. M. & McDermott, D. (1991) J Biol. Chem. 266, 12560-12567; Murphy, P. M., Gallin, E. K., and Tiffany, H. L. (1990) J Immunol. 145, 2227-2234; Schultz, P., et al (1992) Cellular Signalling 4, 153-161) and, unlike all other GPCRs tested in this system, injection of cRNA for the cloned chemotactic receptors alone is insufficient to stimulate signal transduction in response to ligand binding (Kroll, B., et al (1991) FEBS Lett. 291, 208-210; Murphy, P. M. & McDermott, D. (1991) J Biol. Chem. 266, 12560-12567). Functional expression of both of these chemotactic receptors, as monitored by induction of Ca^2+ mediated chloride currents, requires the co-injection of a complimentary human factor which can be supplied by total RNA from myeloid or liver cells (Kroll, B., et al (1991) FEBS Lett. 291, 208-210; Murphy, P. M. & McDermott, D. (1991) J Biol. Chem. 266, 12560-12567). The co-factor is required for receptor-mediated signal transduction but not for expression of the C5a-R or fMLF-R on the surface of the oocytes (Murphy, P. M., et al (1990) J Immunol. 145, 2227-2234). […] Xenopus oocytes were used to functionally characterize C3a Receptor. […] Like the C5a-R and the fMLF-R, the response was dependent on the co-injection of a cofactor present in total HL-60 or U937 RNA. […] (FIG. 3B). Both the C5a-R as well as C3a Receptor elicited in oocytes a promiscuous response to the two anaphylatoxins.

C3a-R = settings: cited from earlier work
guinea pig ileal tissue = settings: C3a and C4a; cited from earlier work

CSCC[C@H](NC=O)C(=O)N[C@@H](CC(C)C)C(=O)N[C@@H](Cc1ccccc1)C(=O)O [fMLF, fMetLeuPhe]
electrophysiological response of oocytes expressing C3a Receptor (C3a Receptor): not

CCCCCCCCCCCCCCCCOCC(COP(=O)([O-])OCC[N+](C)(C)C)OC(C)=O (centres unmarked) [platelet activating factor]
electrophysiological response of oocytes expressing C3a Receptor (C3a Receptor): not

pertussis toxin
sensitivity of functional activity of the C3a-R to pertussis toxin (C3a-R): sensitive | effect on response to the C3a peptide of oocytes co-injected with C3a Receptor and U937 RNA (C3a Receptor; response to C3a peptide, data not shown): abolished

B1: C4a: 74-77 amino acid anaphylatoxins C3a, C4a and C5a (protein, UniProt P0C0L4 680-756, looked up)
C4a anaphylatoxin: NVNFQKAINEKLGQYASPTAKRCCQDGVTRLPMMRSCEQRAARVQQPDCREPFLSCCQFAESLRKKSRDKGQAGLQR
modifications: C4a anaphylatoxin
notes: 74-77 amino acid anaphylatoxins C3a, C4a and C5a
cross desensitization of guinea pig ileal tissue (guinea pig ileal tissue): cross desensitize
